Experimental data reported in patent publication US6340705B1, “Use of α-linolenic acid metabolites for treatment or prevention of cancer” (Monsanto Technology, LLC, priority 1999, dated 2002).
Marks after values point to notes of the source that are not given here.

How the values were obtained:
[1] = test system: Min/+ mouse model of intestinal cancer; test: Intestinal polyp formation in the Min/+ mouse model of intestinal cancer; type: in vivo; design: Avg. large intestine tumor size: unit not given here; settings: Min/+ mice; for effectiveness in inhibiting polyp formation and development in the large intestine / effect on polyp number relative to the US17 control: 10 g/day human equivalent dose; for Total small intestine tumors/group / Avg. large intestine tumors/mouse / Avg. small intestine tumor size / Avg. small intestine tumors/mouse / Avg. large intestine tumor size / Avg. large intestine tumor load / Avg. small intestine tumor load / Total Avg. overall tumor load / Total Avg. overall tumor size / Total Avg. tumors/mouse: 10 g/day human equivalent dose (3% wt.) or sulindac 320 ppm; for Total small intestine tumors/group / Avg. large intestine tumors/mouse / Avg. small intestine tumor size / Avg. small intestine tumors/mouse / Avg. large intestine tumor size / Avg. large intestine tumor load / Avg. small intestine tumor load / Total large intestine tumors/group / Total Avg. overall tumor load / Total Avg. overall tumor size / Total Avg. tumors/mouse / Total large intestine tumors/group, figure in brackets (animals bearing tumors/animals in group): seven weeks; for Avg. large intestine tumors/mouse / Avg. small intestine tumor size / Avg. small intestine tumors/mouse / Avg. large intestine tumor size / Avg. large intestine tumor load / Avg. small intestine tumor load / Total Avg. overall tumor load / Total Avg. overall tumor size / Total Avg. tumors/mouse: mean ± SEM; for Avg. large intestine tumor size: only animals bearing colonic tumors; for Avg. large intestine tumor load / Avg. small intestine tumor load: tumor number × tumor size; for Total large intestine tumors/group / Total large intestine tumors/group, figure in brackets (animals bearing tumors/animals in group): fatty acid ethyl ester 10 g/day human equivalent dose (3% wt.) in US17 diet or sulindac 320 ppm; for Total Avg. overall tumor load / Total Avg. overall tumor size / Total Avg. tumors/mouse: large and small intestine; for effect on polyp number relative to the US17 control: differences not significant
Experimental: The efficacy of select n-3 and n-6 polyunsaturated fatty acids was evaluated in the Min/+ mouse model of intestinal cancer. The following fatty acid ethyl esters were tested for their effect on intestinal polyp formation: 1) ALA-EE; 2) SDA-EE; 2) EPA-EE; 4) DHA-EE; 5) GLA-EE ([…], 18:3 n-6); and 6) CLA-EE (conjugated linoleic acid; c9t11-18:2 (77%)+c9c11-18:2 (18%)+other isomers (5%)).
These fatty acid ethyl esters were added to the US17 diet to provide 10 g/day human equivalent dose (3% wt.). The NSAID, sulindac (320 ppm), served as the positive control. In order to maintain a 17% fat (37 en%) content in the US17 diet, oleic acid (18:1 n-9) was removed from the US17 diet in an amount equal to the amount of the fatty acid ethyl ester that was added. Mice were received at approximately five weeks of age and were fed the test diets upon receipt. After seven weeks on the respective test diet, the mice were sacrificed and the intestinal polyps were counted and measured.

[2] = Metabolism in mice, time course analysis using radiolabeled fatty acids (mouse liver); settings: mice on US17 diet, intraperitoneal 10 μCi, at 24 hours
Experimental: The method used was a time course study using ^14C-labeled fatty acids.
Mice were fed the US17 diet for a period of one month in order to achieve steady-state fatty acid metabolism. After achieving steady-state fatty acid metabolism, the mice were administered an intraperitoneal injection containing 10 μCi of ^14C-ALA, ^14C-SDA, ^14C-EPA OR ^14C-DHA. Mice were sacrificed 3 hours, 8 hours or 24 hours post-injection, and the total amount of ^14C-EPA, ^14C-DPA n-3 and ^14C-DHA was measured by argentation thin layer chromatography followed by direct electronic autoradiography, as described in Example 3.

[3] = test system: HepG2 cells; test: Uptake of 14C-ALA, 14C-SDA and 14C-EPA by HepG2 cells; type: in vitro ADME; settings: for radiolabeled fatty acid taken up by the cells: 20 μM complexed to fatty acid free BSA, within the first six hours of incubation; for uptake by HepG2 cells, comparison (FIG. 1): 20 μM, 6, 24 and 48 hours
Experimental: To a culture medium containing HepG2 cells was added 20 μM ^14C-ALA, ^14C-SDA or ^14C-EPA complexed to fatty acid free BSA. The amount of ^14C-ALA, ^14C-SDA or ^14-EPA EPA Taken up by the HepG2 cells was measured 6 hours, 24 hours and 48 hours after addition of the fatty acid. A scintillation counter was used to measure the total amount of radioactivity in the HepG2 cells and the amount remaining in the medium.

[4] = test system: HepG2 cells; test: Metabolism of radiolabeled fatty acids to long chain n-3 PUFAs (EPA, DHA) in HepG2 cells; type: in vitro ADME; settings: 20 μM
Experimental: HepG2 cells were allowed to take up ^14C-ALA or ^14C-SDA as described in Example 2. The total amount of ^14C-EPA, ^14C-DPA and ^14C-DHA present in the HepG2 cells was measured 6 hours, 24 hours and 48 hours after addition of the fatty acid by argentation thin layer chromatography (TLC). The amount of each fatty acid present as a band on the TLC plate was quantified by electronic autoradiography using an Instant Imager supplied by Packard (Meriden, Conn.).
HepG2 cells were allowed to take up ^14C-ALA, ^14C-SDA or ^14C-EPA as described in Example 2. The amount of ^14C-EPA and ^14C-DHA present in the HepG2 cells was measured 6 hours, 24 hours and 48 hours after addition of the fatty acids by argentation thin layer chromatography (TLC) as described in Example 3. The amount of ^14C-EPA and ^14C-DHA present as bands on the TLC plate were quantified by electronic autoradiography using an Instant Imager as described in Example 3.

[5] = design: species or system Mice; settings: mouse, in vivo
Source text: The method used was a non-radioactive, dose response, metabolic end-point study.
(§1) Mice were fed a US17 diet containing α-linolenic acid ethyl ester (ALA-EE), stearidonic acid ethyl ester (SDA-EE), eicosapentaenoic acid ethyl ester (EPA-EE), or docosahexaenoic acid ethyl ester (DHA-EE) in an amount equivalent to a human western diet containing 1, 3 or 10 g/day of the fatty acid (g/day human equivalent dose). In order to maintain a 17% fat (37 en %) content in the US17 diet, oleic acid (18:1 n-9), as an oleic acid cassette, was removed from the US17 diet in an amount equal to the amount of fatty acid ester that was added. Oleic acid was selected as the replacement fatty acid because literature reports indicate that oleic acid is neutral with respect to inflammation and cancer.
(§2) After one month on the respective US17-based diets, the mice were sacrificed and the fatty acid composition of each of their livers was analyzed by gas chromatography. The results of these analyses are pressured in FIG. 8.

[6] = type: in vivo, rats; settings: rat, in vivo
Source text: as §1, §2
The method used was as described in Example 6 except that rats were used in place of mice.

Compound	effectiveness in inhibiting polyp formation and development in the large intestine [1]	Total small intestine tumors/group [1]	Avg. large intestine tumors/mouse [1]	Avg. small intestine tumor size [1]	Avg. small intestine tumors/mouse [1]	Avg. large intestine tumor size [1]	Avg. large intestine tumor load [1]	Avg. small intestine tumor load [1]	Total large intestine tumors/group [1]	Total Avg. overall tumor load [1]	Total Avg. overall tumor size [1]	Total Avg. tumors/mouse [1]	order of metabolism to 14C-EPA + 14C-DPA n-3 + 14C-DHA in mouse liver (FIG. 6) [2]	Total large intestine tumors/group, figure in brackets (animals bearing tumors/animals in group) [1]	effect on polyp number relative to the US17 control [1]	radiolabeled fatty acid taken up by the cells [3]	uptake by HepG2 cells, comparison (FIG. 1) [3]	amount of EPA that remained after incubation with EPA itself [4]	sum of long chain n-3 PUFAs (EPA+DPA n-3+DHA) in liver tissue, rank order of dose dependent increase (FIG. 8) [5]	sum of long chain n-3 PUFAs (EPA+DPA n-3, and DHA) in liver tissue, rank order of dose dependent accumulation (FIG. 9) [6]
CC/C=C\C/C=C\C/C=C\C/C=C\C/C=C\C/C=C\CCC(=O)O [DHA, docosahexaenoic acid]	no efficacy	280	1.8 ± 0.4^a	1.16 ± 0.04^ab mm	28.0 ± 5.6^bc	3.01 ± 0.20^a	5.06 ± 0.85^a mm	33.15 ± 8.09^bc mm	18	35.60 ± 7.10^bc mm	1.20 ± 0.04^bc mm	29.8 ± 5.9^bc	DHA=EPA>SDA>ALA	–	–	–	–	–	–	–
α-linolenic acid [ALA]	marginally efficacious	364	0.8 ± 0.3^bcd	1.23 ± 0.04^ab mm	36.4 ± 6.3^ab	2.75 ± 0.46^ab	2.15 ± 0.83^bcd mm	45.67 ± 8.66^ab mm	8	45.97 ± 8.88^ab mm	1.21 ± 0.03^bc mm	37.2 ± 6.6^ab	–	5/10	–	–	–	–	–	–
conjugated linoleic acid [CLA]	–	409	1.1 ± 0.4^abcd	1.24 ± 0.03^ab mm	45.4 ± 8.2^a	3.03 ± 0.52^a	3.47 ± 1.29^ab mm	57.84 ± 11.70^a mm	10	61.30 ± 12.41^a mm	1.28 ± 0.04^ab mm	46.6 ± 8.3^a	–	5/9	appeared to increase polyp number	–	–	–	–	–
CC/C=C\C/C=C\C/C=C\C/C=C\C/C=C\CCCC(=O)O [EPA, eicosapentaenoic acid]	–	176	0.9 ± 0.3^abcd	1.05 ± 0.03^b mm	17.6 ± 2.2^cd	2.48 ± 0.39^ab	2.25 ± 0.75^bcd mm	–	9	20.28 ± 2.23^cd mm	1.11 ± 0.04^cd mm	18.5 ± 2.2^a	–	–	–	Approximately 95%	taken up equally	63%	–	–
CC/C=C\C/C=C\C/C=C\C/C=C\C/C=C\CCCC(=O)OCC [EPA-EE, eicosapentaenoic acid ethyl ester]	–	–	–	–	–	–	–	–	–	–	–	–	–	–	–	–	–	–	DHA-EE>EPA-EE>SDA-EE>ALA-EE	DHA-EE>EPA-EE>SDA-EE>ALA-EE
CC/C=C\C/C=C\C/C=C\CCCCCCCC(=O)OCC [ALA-EE, α-linolenic acid ethyl ester]	–	–	–	–	–	–	–	–	–	–	–	–	–	–	–	–	–	–	DHA-EE>EPA-EE>SDA-EE>ALA-EE	DHA-EE>EPA-EE>SDA-EE>ALA-EE
CC1=C(CC(=O)O)c2cc(F)ccc2/C1=C\c1ccc([S+](C)[O-])cc1 (stereo not drawn) [Sulindac, sulindac]	–	29	0.2 ± 0.2^cd	1.25 ± 0.29^ab mm	3.2 ± 1.1^d	2.00 ± 0.00^ab	0.44 ± 0.29^cd mm	3.64 ± 1.12^d mm	2	3.64 ± 1.27^d mm	1.04 ± 0.08^d mm	3.4 ± 1.2^d	–	2/9	–	–	–	–	–	–
CC/C=C\C/C=C\C/C=C\CCCCCCCC(=O)O [ALA, α-linolenic acid]	–	–	–	–	–	–	–	–	–	–	–	–	–	–	–	Approximately 95%	taken up equally	–	–	–
CCCCC/C=C\C/C=C\C/C=C\CCCCC(=O)O [GLA, γ-linolenic acid]	–	421	1.2 ± 0.4^abc	1.30 ± 0.04^ab mm	46.8 ± 7.1^a	2.57 ± 0.30^ab	3.25 ± 1.34^abc mm	61.62 ± 10.36^a mm	11	64.84 ± 11.05^a mm	1.33 ± 0.04^a mm	48.0 ± 7.4^a	–	6/9	appeared to increase polyp number	–	–	–	–	–
CC/C=C\C/C=C\C/C=C\C/C=C\C/C=C\C/C=C\CCC(=O)OCC [DHA-EE, docosahexaenoic acid ethyl ester]	–	–	–	–	–	–	–	–	–	–	–	–	–	–	–	–	–	–	DHA-EE>EPA-EE>SDA-EE>ALA-EE	DHA-EE>EPA-EE>SDA-EE>ALA-EE
CC/C=C\C/C=C\C/C=C\C/C=C\CCCCC(=O)OCC [SDA-EE, stearidonic acid ethyl ester]	–	–	–	–	–	–	–	–	–	–	–	–	–	–	–	–	–	–	DHA-EE>EPA-EE>SDA-EE>ALA-EE	DHA-EE>EPA-EE>SDA-EE>ALA-EE
